These results are taken from US8188046B2, “Amyloid beta peptides and methods of use” (University of South Florida, priority 2006, dated 2012).

Data set [1] relates to patients aged 50 to 85 years with probable AD. The conditions noted are these: with adjuvant QS-21 and polysorbate 80, cited from earlier work.
Data set [2] concerns mice. As to the kind of experiment: T cell epitope mapping: antibody production after vaccination with DCs treated with Abeta fragments (FIG. 11). It is filed as in vivo, mouse. Particulars: two vaccinations with DCs, 1×10^6 cells/mice, treated with 20 μg/million cell; ELISA 1:800 dilutions. An excerpt:
FIG. 11. Mapping result of T cell epitope with Abeta fragment carrying Dutch mutation by ELISA.
For orientation: In an ELISA, binding on a coated surface is turned into a signal by an enzyme label.

The test system of data set [3] is BALB/c mice. As to the kind of experiment: Mouse anti-Abeta IgG isotyping (Th1/Th2 response). The conditions noted are these: n=4; for Anti-Abeta antibody isotype: peptide vaccination without adjuvant. The class given is in vivo. The source says:
To further confirm the inflammation issue, we detected type one and type two T cell response by using the mouse anti-Abeta IgG isotyping method. […] (see FIG. 10).

In data set [4] the test system is BALB/c mice. The experiment in a line: Antibody titer by ELISA after adjuvant-free subcutaneous Abeta peptide vaccination. Particulars: boost 50 ug/mice six months post third inoculation; ELISA 10 days later; no adjuvant. The class given is in vivo, mouse. As for the experimental part: Peptides: Aβ 1-42 and related peptides were obtained from Synpep (Dublin, Calif.). Peptides for vaccination were reconstituted to 10 mg/ml in DMSO and further diluted to 2 mg/ml with phosphate buffered saline.
Mice: 10 weeks old female BALB/c mice from the Jackson laboratories were housed in Varian standard cages including amber igloos and vaccinated when 14 weeks old. A total of 28 mice were grouped into 7 vaccination groups each with four animals. Differently mutated Aβ1-42 peptides were used for each group and a 1×PBS (also containing 10% DMSO) as a control group. Initial subcutaneous vaccination began at 100 μg peptide in 100 μl VEHICLE and subsequent booster vaccinations proceeded at 100 μg peptide (100 μl) at two weeks intervals. A third inoculation was carried out with 50 μg peptide in 100 μl.
Bleeding and plasma collection procedures: 10 days after injection, mice were bled by submandibular phlebotomy into EDTA tubes, and plasma was separated by centrifugation at 1500 g for 20 minutes with StatSampler from StatSpin (MA). Plasma were isolated by centrifugation and frozen at −80° C.
Antibody titer determination: Anti-amyloid beta antibody (6E10) was purchased from Signet Laboratories (Dedham, Mass.) and used as positive control. […] Plates were read at 450 nm/630 nm, and samples with readings three times higher than controls were considered positive. […]

Take “AN1792: wild type amyloid beta 1-42 peptide used as a vaccine with adjuvant QS-21 and polysorbate 80”: the “Occurrence of meningoencephalitis, subset of patients” value in data set [1] (Phase II) is given as 6%. In addition, in data set [1], the “Clinical benefits in follow up study of vaccinated patients” value was “reduced AD-like pathology and improved cognition”. On to “Abeta 1-25: Abeta fragment 1-25 [reference compound]”, for which the Antibody production entry in data set [2] is on record as “no antibody production”.

Turning to “DAEFRHDSGYEVHHQKLVFFAQDVGSNKGAIIGLM [Abeta 1-35 carrying Dutch mutation, Aβ 1-35 with Dutch mutation]”, in data set [2], the Antibody production result is “antibody production”. For the substance “PDM: Abeta 1-42 with Dutch mutation, aa16-24 KLVFFAQDV”, the “Th response by antibody isotyping with adjuvant” value in data set [3] (adjuvant MPL treated vaccine compared to no adjuvant) is “adjuvant clearly induces a Th1 response”. The “Long term antibody and memory response after boost” value in data set [4] is “induce long term antibody response and with a good memory response”.

On to “PFDM: Abeta 1-42 with both Flemish and Dutch mutation, aa16-24 KLVFFGQDV”, for which the Anti-Abeta antibody isotype entry in data set [3] is given as “IgG2a response”. Same read-out and setting: the result for “PFM: Abeta 1-42 with Flemish mutation, aa16-24 KLVFFGEDV” reads “IgG2a response”.
